# Data from patent US20240124456A1, “AZA-ERGOLINE DERIVATIVE AND PREPARATION METHOD THEREFOR AND APPLICATION THEREOF” (SHANGHAITECH UNIVERSITY, priority 2021, published 2024).
# Where two headings read alike, the source gives them in different places.
# Legend:
# Format in all cases: in vivo
# [1] = Brain permeability in C57 male mice (plasma and brain tissue concentration); settings: mouse; for Kp at 0.5 h / Kp at 2 h: brain/plasma; for Kp at 0.5 h: read-out: Brain/blood concentration ratio at 0.5 h; for Kp at 2 h: read-out: Brain/blood concentration ratio at 2.0 h
# Procedure: • 2. Test of the brain permeability of compound (−)-I-10 administered to C57 male mice by single intragastric administration, intraperitoneal injection and intravenous injection
# Using the same method as the pharmacokinetic experiment, 0.030 mL of blood was taken from each animal through the orbit at 0.5 and 2.0 hours, respectively, and anticoagulated with EDTA-K2. Blood samples were placed on ice after collection, and the plasma was separated by centrifugation within 30 minutes (centrifugation conditions: 5000 rpm, 10 minutes, 4° C.) and stored at −80° C. until analysis. After the animal was euthanized by bloodletting, the brain tissue samples were taken, homogenized with 50% methanol according to the body weight of 1:3 (m/v=1:3), and stored at −80° C. before homogenate analysis. The drug concentrations in plasma and brain tissue were analyzed by LC/MS/MS and compared.
# C57B6 male mice [2] = test: Old and novel object recognition, MK801 recognition impairment model; settings: for Distinguishing index (DI): MK801 (0.3 mg/kg) 14 injections in 7 days, 7 days recovery
# Procedure: The experimental animals were C57B6 male mice, n=8 in each group. Firstly, mice were intraperitoneally injected with MK801 at 0.3 mg/kg twice a day for seven consecutive days to establish a recognition impairment model, and control mice were intraperitoneally injected with normal saline containing the same amount of DMSO. The mice then underwent a seven-day recovery in home cages. After the recovery period expired, the old and novel object distinguishing experiment was performed on the mice to determine the effect of the compounds on the recognition ability of the mice.
# Novel and old object recognition experiment: The experiment was carried out in a low-light environment. Before the experiment started, the mice were placed in the experimental field in advance and adapted to the environment for one hour in the low-light environment. After environmental adaptation, the mice were administered intraperitoneally. 30 minutes after the administration, the mice were put in an open field (diameter of the open field of 40 cm) in which two identical objects had been placed beforehand. The mice explored freely in the open field for 10 minutes, and then were removed from the open field and returned to the cage. After a one-hour interval, the mice returned to the open field, where an old object and a novel object were placed in advance in the same position in the open field. Again, the mice explored freely in the open field for 10 minutes. The distinguishing time of the mice for the old object and the novel object was recorded separately and the distinguishing index was calculated. The calculation method of the distinguishing index was (exploration time for novel object−exploration time for old object)/(exploration time for novel object+exploration time for old object). Object exploration by the mice was defined as sniffing, climbing, and direct contact with the object. Data statistics were carried out using Student-t-test, p<0.05 was *, p<0.01 was **, p<0.001 was ***, p<0.0001 was ****.
# C57B6 male mice [3] = test: Morris water maze, MK801 recognition impairment model; settings: for Platform exploration time / Times of crossing platform area: MK801 model; for Times of crossing platform area: probe trial
# Procedure: The experimental animals were C57B6 male mice, n=8 in each group. Firstly, mice were intraperitoneally injected with 0.2 mg/kg of MK801 twice a day for ten consecutive days to establish a recognition impairment model, and control mice were intraperitoneally injected with normal saline containing the same amount of DMSO, and then the mice were subjected to the Morris water maze test.
# Experimental setup: Experiments were conducted in a blue circular water reservoir with a diameter of 130 cm. The reservoir was filled with pure water about 30 cm deep. The reservoir was divided into 4 fan-shaped areas by a cross, and the escape platform (6 cm in diameter) was located in the center of one of the fan-shaped areas and was hidden 0.5 cm below the water surface. The position where the mice entered the water was fixed at the edges of the other three fan-shaped areas. The position where the mice entered the water was basically consistent with the straight-line distance of the platform.
# Acquisition phase: 30 minutes before the start of the experiment, the mice were administered intraperitoneally. After the experiment started, the mouse was put into the water with its head facing the reservoir wall, and the placement position was randomly selected from one of the three starting positions in the east, west, and south, and the underwater hidden platform was located in the north quadrant. The time taken by the mouse to find the underwater platform was recorded. […] Then the above steps were repeated 2 times at another starting position. Each animal was trained three times a day for 5 consecutive days.
# Probe trial: on the second day after the last acquisition phase, the platform was removed and a 60-second probe trial began. The animal was placed in the water from the opposite side of the original platform quadrant. The number of times the animal crossed the original platform location was recorded as a detection index of spatial memory. Data statistics were carried out using Student-t-test, p<0.05 was *, p<0.01 was **, p<0.001 was ***, p<0.0001 was ****.
# [4] = ip, intraperitoneal injection 1 mg/kg
smiles,measurement,setting,value
CN(C)C(=O)N[C@H]1CC[C@H](CCN2CCN3c4cccc5[nH]cc(c45)C[C@H]3C2)CC1 [(−)-I-10],concentration at 0.5 h,"[1]; brain, intravenous injection 1 mg/kg, read-out: Drug concentration at 0.5 h in brain",219 ± 21 ng/mL
same,concentration at 2 h,"[1]; brain, intravenous injection 1 mg/kg, read-out: Drug concentration at 2.0 h in brain",77 ± 7 ng/mL
same,concentration at 0.5 h,"[1]; brain, ip, intraperitoneal injection 1 mg/kg, read-out: Drug concentration at 0.5 h in brain",193 ± 13 ng/mL
same,concentration at 2 h,"[1]; brain, ip, intraperitoneal injection 1 mg/kg, read-out: Drug concentration at 2.0 h in brain",42.7 ± 4 ng/mL
same,concentration at 0.5 h,"[1]; brain, oral administration 5 mg/kg, read-out: Drug concentration at 0.5 h in brain",346 ± 217 ng/mL
same,concentration at 2 h,"[1]; brain, oral administration 5 mg/kg, read-out: Drug concentration at 2.0 h in brain",169 ± 23 ng/mL
same,Kp at 0.5 h,[1]; intravenous injection 1 mg/kg,1.65
same,Kp at 2 h,[1]; intravenous injection 1 mg/kg,3.09
same,Kp at 0.5 h,[1]; [4],1.56
same,Kp at 2 h,[1]; [4],3.1
same,Kp at 0.5 h,[1]; oral administration 5 mg/kg,1.5
same,Kp at 2 h,[1]; oral administration 5 mg/kg,1.78
same,concentration at 0.5 h,"[1]; plasma, intravenous injection 1 mg/kg, read-out: Drug concentration at 0.5 h in plasma",133 ± 19 ng/mL
same,concentration at 2 h,"[1]; plasma, intravenous injection 1 mg/kg, read-out: Drug concentration at 2.0 h in plasma",24.9 ± 5 ng/mL
same,concentration at 0.5 h,"[1]; plasma, ip, intraperitoneal injection 1 mg/kg, read-out: Drug concentration at 0.5 h in plasma",124 ± 15 ng/mL
same,concentration at 2 h,"[1]; plasma, ip, intraperitoneal injection 1 mg/kg, read-out: Drug concentration at 2.0 h in plasma",13.8 ± 2.7 ng/mL
same,concentration at 0.5 h,"[1]; plasma, oral administration 5 mg/kg, read-out: Drug concentration at 0.5 h in plasma",231 ± 153 ng/mL
same,concentration at 2 h,"[1]; plasma, oral administration 5 mg/kg, read-out: Drug concentration at 2.0 h in plasma",95 ± 16 ng/mL
same,improvement of MK801-induced recognition impairment (in words),C57B6 male mice [2]; 0.1 mg/kg and 0.025 mg/kg,significantly improve
same,Distinguishing index (DI),C57B6 male mice [2]; 0.00625 mg/kg,0.05971 ± 0.03658
same,Distinguishing index (DI),C57B6 male mice [2]; 0.025 mg/kg,0.3320 ± 0.06367
same,Distinguishing index (DI),C57B6 male mice [2]; 0.1 mg/kg,0.2789 ± 0.04036
same,improvement of MK801-induced spatial recognition impairment (in words),C57B6 male mice [3]; 0.1 mg/kg,significantly improve
same,improvement of MK801-induced memory impairment (in words),C57B6 male mice [3]; 0.1 mg/kg and 0.025 mg/kg,significantly improve
same,Platform exploration time,"C57B6 male mice [3]; fifth day, 0.00625 mg/kg",97.94 s
same,Platform exploration time,"C57B6 male mice [3]; fifth day, 0.025 mg/kg",92.23 s
same,Platform exploration time,"C57B6 male mice [3]; fifth day, 0.1 mg/kg",62.86 s
same,Platform exploration time,"C57B6 male mice [3]; first day, 0.00625 mg/kg",173.0 s
same,Platform exploration time,"C57B6 male mice [3]; first day, 0.025 mg/kg",161.2 s
same,Platform exploration time,"C57B6 male mice [3]; first day, 0.1 mg/kg",146.2 s
same,Platform exploration time,"C57B6 male mice [3]; fourth day, 0.00625 mg/kg",87.77 s
same,Platform exploration time,"C57B6 male mice [3]; fourth day, 0.025 mg/kg",96.66 s
same,Platform exploration time,"C57B6 male mice [3]; fourth day, 0.1 mg/kg",68.62 s
same,Times of crossing platform area,C57B6 male mice [3]; 0.00625 mg/kg,2.600
same,Times of crossing platform area,C57B6 male mice [3]; 0.025 mg/kg,4.500
same,Times of crossing platform area,C57B6 male mice [3]; 0.1 mg/kg,5.800
same,Platform exploration time,"C57B6 male mice [3]; second day, 0.00625 mg/kg",145.3 s
same,Platform exploration time,"C57B6 male mice [3]; second day, 0.025 mg/kg",154.0 s
same,Platform exploration time,"C57B6 male mice [3]; second day, 0.1 mg/kg",128.5 s
same,Platform exploration time,"C57B6 male mice [3]; third day, 0.00625 mg/kg",108.1 s
same,Platform exploration time,"C57B6 male mice [3]; third day, 0.025 mg/kg",96.66 s
same,Platform exploration time,"C57B6 male mice [3]; third day, 0.1 mg/kg",88.38 s
